# From US11013714B2, “Use of homoeriodictyol (HED) for reducing the gastric acid secretion-stimulating effect of n-acetyl-4-aminophenol (Paracetamol)” (SYMRISE AG, priority 2016, dated 2021)
# Where “and” joins values, the source holds several entries; their conditions need not be identical. Equal entries are not always repeated. Where two headings read alike, the source gives them in different places.
# Tests used:
# HGT-1 cells [1] = conditions: cited from earlier work
# TAS2R43 = target: T1, TAS2R43 (Homo sapiens, UniProt P59537); assay: Own experiments on bitter receptor TAS2R43
# T1 sequence (P59537 1-309): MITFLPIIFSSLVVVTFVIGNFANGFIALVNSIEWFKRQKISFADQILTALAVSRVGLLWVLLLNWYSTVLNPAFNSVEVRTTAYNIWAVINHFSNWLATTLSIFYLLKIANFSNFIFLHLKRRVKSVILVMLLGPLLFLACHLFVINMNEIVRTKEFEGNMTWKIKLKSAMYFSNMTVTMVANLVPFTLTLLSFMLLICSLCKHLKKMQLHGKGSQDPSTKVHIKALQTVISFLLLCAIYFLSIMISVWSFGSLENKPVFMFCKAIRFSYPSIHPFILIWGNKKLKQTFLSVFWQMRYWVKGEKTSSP
# HGT-1 cells [2] = assay: Proton secretion in HGT-1 cells (intracellular pH, SNARF-1-AM dye); type: cell-based, human
# Protocol: Human parietal cells (human gastric tumour cell line, HGT-1) were used as cellular model. These were provided by Dr. C. Laboisse (Laboratory of Pathological Anatomy, Nantes, France). The cells are cultured at standard conditions at 37° C., 5% CO2 in DMEM (Dulbecco's Modified […] Medium) with 4 g/L glucose, 10% FBS, 2% L-glutamine and 1% Penicillin/Streptomycin. For measuring the intracellular proton concentration, the cells are treated with Trypsin/EDTA, the cellular viability was determined with Trypan blue staining and 100 000 cells/well were seeded in black 96-well plates. […] The cells in the 96-well plates are washed once with Krebs-Hepes-buffer (KRHP) and incubated with the dye in a concentration of 3 μM dissolved in KRHP for 30 min at 37° C. and 5% CO2. Afterwards, the cells are washed twice with KRHP and substances stimulating gastric acid secretion, as for example 3 mM caffeine, 0.3 mM Theobromine or 3 mM Paracetamol alone or in combination with substances for reducing the gastric acid stimulating effect of the above substances, for example Homoeriodictyol (HED), in various concentrations in phenol red free DMEM in a volume of 100 μL were added; as a further control, the substances stimulating gastric acid secretion as named above were tested alone. Homoeriodictyol is dissolved in double distilled water. The final concentration of solvent, which is added to the cells, is at most 1%. The fluorescent dye is excited at the wave length of 488 nm and the emission is measured at 580 nm and 640 nm. […] For the calibration curve, the cells are treated with a potassium buffer in different pH values of from 7.2 to 8.2 and 2 μM Nigericin. Nigericin equilibrates the intracellular and extracellular pH value so that the intracellular pH value can be defined. The intracellular H^+-concentration is obtained from the intracellular pH value. The intracellular proton index (IPX) is calculated by log 2 transformation of the ratio of treated cells and untreated cells (control) ([…].; Somoza, M. M.; Hofmann, T.; Somoza, V., Mol Nutr Food Res 2012, 56, 325-335; Rubach, M.; Lang, R.; Hofmann, T.; Somoza, V., Ann N Y Acad Sci 2008, 1126, 310-4; […].; Hofmann, T.; Somoza, V., J Agric Food Chem 2010, 58, 4153-61; Weiss, […].; Blumberg, S.; Frank, O.; Hofmann, T.; Somoza, V., J Agric Food Chem 2010, 58, 1976-85; Liszt, K. I.; Walker, J.; Somoza, V., J Agric Food Chem 2012, 60, 7022-7030; Walker, J.; Hell, J.; Liszt, […].; Hofmann, T.; Somoza, V., J Agric Food Chem 2012, 60, 1405-12). The number of indicated replicates relates to technical replicates (tr) or the number of total replicates (n), which results from the number of technical replicates multiplied with the number of biological replicates. […] Statistics: one-way Anova with Holm-Sidak post-hoc test. Significant differences (p<0.05) are indicated by letters.
# TAS2R39 = target: T2, TAS2R39 (Homo sapiens, UniProt P59534); conditions: Roland et al., J. Agric. Food Chem. 2013; cited from earlier work
# T2 sequence (P59534 1-338): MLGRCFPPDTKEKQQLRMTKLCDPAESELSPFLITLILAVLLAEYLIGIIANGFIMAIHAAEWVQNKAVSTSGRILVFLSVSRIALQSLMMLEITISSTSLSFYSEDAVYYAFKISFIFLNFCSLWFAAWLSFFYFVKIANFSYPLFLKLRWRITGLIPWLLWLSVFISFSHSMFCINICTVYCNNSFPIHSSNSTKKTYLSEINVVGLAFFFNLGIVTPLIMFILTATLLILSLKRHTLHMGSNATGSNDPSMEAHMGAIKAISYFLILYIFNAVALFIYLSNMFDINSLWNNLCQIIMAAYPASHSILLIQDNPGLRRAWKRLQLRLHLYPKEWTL
smiles,measurement,setting,value
"Cn1c(=O)c2c(ncn2C)n(C)c1=O [Caffeine, caffeine, reference compound]","percentage increase (positive values) or decrease (negative values) of the proton secretion, mean","HGT-1 cells [1]; 3 mM caffeine alone (DMEM), 10 minutes stimulation",54.80%
same,"percentage increase (positive values) or decrease (negative values) of the proton secretion, mean","HGT-1 cells [1]; 3 mM caffeine alone (DMEM), 10 minutes stimulation, listed as caffeine",55%
"COc1cc(C2CC(=O)c3c(O)cc(O)cc3O2)ccc1O (centres unmarked) [HED, 3′-Methoxy-4′,5,7-trihydroxy flavanone]","percentage increase (positive values) or decrease (negative values) of the proton secretion, mean","HGT-1 cells [1]; 0.3 mM Theobromine + 0.003 mM HED, 10 minutes",21.56%
same,"percentage increase (positive values) or decrease (negative values) of the proton secretion, mean","HGT-1 cells [1]; 0.3 mM Theobromine + 0.03 mM HED, 10 minutes",14% and 13.79%
same,"percentage increase (positive values) or decrease (negative values) of the proton secretion, mean","HGT-1 cells [1]; 0.3 mM Theobromine + 0.3 mM HED, 10 minutes",−16.92%
same,"percentage increase (positive values) or decrease (negative values) of the proton secretion, mean","HGT-1 cells [1]; 3 mM caffeine + 0.03 mM HED, 10 minutes",38%
same,"percentage increase (positive values) or decrease (negative values) of the proton secretion, mean","HGT-1 cells [1]; 3 mM caffeine + 0.3 mM HED, 10 minutes",20% and 20.20%
same,proton secretion decreased by,HGT-1 cells [1]; simultaneous incubation with 0.3 mM Theobromine and 0.3 mM HED,17%
same,effect on the proton secretion in HGT-1-cells,"HGT-1 cells [1]; sole HED, without gastric acid secretion-stimulating substances (WO 2014111436 A1)",no significant effect
same,effect at receptor type TAS2R43,TAS2R43,antagonist
same,"percentage increase (positive values) or decrease (negative values) of the proton secretion, mean","HGT-1 cells [2]; 3 mM Paracetamol + 0.003 mM HED, 10 minutes",10.96%
same,"percentage increase (positive values) or decrease (negative values) of the proton secretion, mean","HGT-1 cells [2]; 3 mM Paracetamol + 0.03 mM HED, 10 minutes",7% and 6.57%
same,"percentage increase (positive values) or decrease (negative values) of the proton secretion, mean","HGT-1 cells [2]; 3 mM Paracetamol + 0.3 mM HED, 10 minutes",−46.24%
same,effect on constitutive acid secretion,"HGT-1 cells [2]; 3 mM Paracetamol, addition of 0.3 mM HED, compared to control without active substances",significant reduction of the constitutive acid secretion
same,proton secretion induced by 3 mM Paracetamol,HGT-1 cells [2]; addition of 0.003 or 0.03 mM HED,reduced
same,proton secretion increased by,HGT-1 cells [2]; simultaneous incubation with 3 mM Paracetamol and 0.003 mM HED,11%
same,proton secretion reduced by,HGT-1 cells [2]; simultaneous incubation with 3 mM Paracetamol and 0.3 mM HED,46%
same,effect at receptor type TAS2R39,TAS2R39,agonist
"CC(=O)Nc1ccc(O)cc1 [Paracetamol, N-(4-Hydroxyphenyl)acetamide]","percentage increase (positive values) or decrease (negative values) of the proton secretion, mean","HGT-1 cells [2]; 3 mM Paracetamol alone (DMEM), 10 minutes stimulation",24% and 24.10%
"Cn1cnc2c1c(=O)[nH]c(=O)n2C [Theobromine, reference compound]","percentage increase (positive values) or decrease (negative values) of the proton secretion, mean","HGT-1 cells [1]; 0.3 mM Theobromine alone (DMEM), 10 minutes stimulation",21% and 20.92%
